Measurements taken from paper PMC12054466 (RSC Advances, 2025).
Read-outs that look alike come from different tables or passages of the source.

What was measured:
[1] = assay type: binding
[2] = rabbits, single oral dose 10 mg kg^−1, n = 5, mean; unit as in Table 4

λz [2]: 0.06 h
SMILES: CC(C)(C(=O)O)c1ccc(C(O)CCCN2CCC(C(O)(c3ccccc3)c3ccccc3)CC2)cc1 (stereo not shown) [fexofenadine, Fexofenadine]
Ksv (Stern–Volmer quenching constant) ([1]; 298 K (25 °C)): 1.36 10^6 M^−1
Ksv (Stern–Volmer quenching constant) ([1]; 303 K): 1.09 10^6 M^−1
Ksv (Stern–Volmer quenching constant) ([1]; 308 K (35 °C)): 0.95 10^6 M^−1
